From PubChem BioAssay AID248 (DTP/NCI, 2004) come the findings set out here.

The subject of the assay is L1210 leukemia ip in BDF1 mice, survival T/C. Nature of the assay: NCI In Vivo Anticancer Drug Screen. Data for tumor model L1210 Leukemia (intraperitoneal) in B6D2F1 (BDF1) mice. As to conditions: endpoint: mean survival time, higher = longer survival. Summed up:
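Each compound was tested against a transplantable tumor grown in mice. The endpoint was survival, with treated animals benchmarked against vehicle controls as a simple ratio.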

The mark [1] stands for this setting: dose: 100.0 mg/kg/injection, schedule: Q04DX002 (ip), vehicle: Klucel (hydroxypropylcellulose) (HPC).
Setting [2] is: dose: 200.0 mg/kg/injection, schedule: Q04DX002 (ip), vehicle: Klucel (hydroxypropylcellulose) (HPC).
Where [3] appears, read: dose: 400.0 mg/kg/injection, schedule: Q04DX002 (ip), vehicle: Klucel (hydroxypropylcellulose) (HPC).
[4] abbreviates: dose: 100.0 mg/kg/injection, schedule: Q04DX002 (ip), vehicle: saline with Tween-80.
[5] abbreviates: dose: 200.0 mg/kg/injection, schedule: Q04DX002 (ip), vehicle: saline with Tween-80.
Where [6] appears, read: dose: 400.0 mg/kg/injection, schedule: Q04DX002 (ip), vehicle: saline with Tween-80.

Where “and” joins values, the source holds several entries; their conditions need not be identical. Identical values can stand only once. Inconclusive results and toxic doses are left out.

With `CC1CCC2C(C)C3C(CC4C5CC=C6CC(OC7OC(CO)C(O)C(OC8OC(CO)C(O)C(O)C8O)C7OC7OC(C)C(O)C(O)C7O)CCC6(C)C5CCC43C)N2C1` (centres undefined), the T/C (dose: 12.5 mg/kg/injection, schedule: Q01DX015 (sc), vehicle: steriod suspending solution) was 101 % of control; the T/C (dose: 25.0 mg/kg/injection, schedule: Q01DX015 (sc), vehicle: steriod suspending solution) was 98 % of control; the T/C (dose: 50.0 mg/kg/injection, schedule: Q01DX015 (sc), vehicle: steriod suspending solution) is 95 % of control; the T/C (dose: 100.0 mg/kg/injection, schedule: Q01DX001 (sc), vehicle: steriod suspending solution) is 100 % of control; the T/C (dose: 100.0 mg/kg/injection, schedule: Q01DX015 (sc), vehicle: steriod suspending solution) is 101 % of control; the T/C (dose: 200.0 mg/kg/injection, schedule: Q01DX001 (sc), vehicle: steriod suspending solution) is 105 % of control. Moreover, the T/C (dose: 400.0 mg/kg/injection, schedule: Q01DX001 (sc), vehicle: steriod suspending solution) was 103 % of control.

On to `CS(=O)(=O)c1ccccc1`, for which the T/C was 102 % of control under setting [1], 91 % of control under setting [2] and 102 % of control under setting [3].

As for `CC(NNC(c1ccccc1)(c1ccccc1)c1ccccc1)c1ccccc1I` (centres undefined), the T/C under setting [4] was 93 % of control, the T/C under setting [5] was 95 % of control and the T/C under setting [6] is 97 % of control.

Consider `CCN(CC)CC(=O)NCC(CCN1CCCC1)(c1cccc2ccccc12)C(C)C` (centres undefined), for which the T/C was 101 % of control (dose: 25.0 mg/kg/injection, schedule: Q01DX009 (ip), vehicle: saline); 98 % of control (dose: 50.0 mg/kg/injection, schedule: Q01DX009 (ip), vehicle: saline); 101 % of control (dose: 100.0 mg/kg/injection, schedule: Q01DX009 (ip), vehicle: saline).

Turning to `CCN(CCN)c1cccc(C)c1`, where the note is “dose: 100.0 mg/kg/injection, schedule: Q04DX003 (ip), vehicle: saline sonified”, the T/C is 92 % of control.

With `O=C(O)CCCCCCCCCCCCCCC(=O)O`, the T/C is, setting by setting: under setting [1], 93 % of control and 97 % of control; under setting [2], 101 % of control; under setting [3], 93 % of control and 101 % of control.

On to `C(CC1CO1)C1CO1` (centres undefined), for which the T/C was 197 % of control (dose: 7.0 mg/kg/injection, schedule: Q01DX009 (ip), vehicle: acetone); 118 % of control (dose: 9.0 mg/kg/injection, schedule: Q01DX Z (ip), vehicle: methylcellulose (MC)); 102 % of control and 115 % of control (dose: 9.2 mg/kg/injection, schedule: Q01DX009 (ip), vehicle: saline); 102 % of control (dose: 10.6 mg/kg/injection, schedule: Q01DX001 (ip), vehicle: acetone); 115 % of control (dose: 10.6 mg/kg/injection, schedule: Q01DX009 (ip), vehicle: acetone); 112 % of control (dose: 10.6 mg/kg/injection, schedule: Q04DX003 (ip), vehicle: acetone). The T/C (dose: 10.6 mg/kg/injection, schedule: Q08DX002 (ip), vehicle: acetone) is 102 % of control; the T/C (dose: 14.0 mg/kg/injection, schedule: Q01DX009 (ip), vehicle: acetone) is 152 % of control; the T/C (dose: 14.0 mg/kg/injection, schedule: Q01DX009 (ip), vehicle: saline) is 102 % of control and 105 % of control; the T/C (dose: 16.0 mg/kg/injection, schedule: Q01DX009 (ip), vehicle: acetone) was 115 % of control; the T/C (dose: 16.0 mg/kg/injection, schedule: Q04DX003 (ip), vehicle: acetone) is 115 % of control; the T/C (dose: 16.0 mg/kg/injection, schedule: Q08DX002 (ip), vehicle: acetone) was 112 % of control. In addition, the T/C (dose: 18.0 mg/kg/injection, schedule: Q01DX Z (ip), vehicle: methylcellulose (MC)) is 122 % of control and 124 % of control; the T/C (dose: 18.8 mg/kg/injection, schedule: Q01DX009 (ip), vehicle: saline) is 107 % of control; the T/C (dose: 21.0 mg/kg/injection, schedule: Q01DX009 (ip), vehicle: saline) was 109 % of control and 116 % of control; the T/C (dose: 22.0 mg/kg/injection, schedule: Q01DX001 (ip), vehicle: saline) was 109 % of control; the T/C (dose: 24.0 mg/kg/injection, schedule: Q01DX001 (ip), vehicle: acetone) was 103 % of control; the T/C (dose: 24.0 mg/kg/injection, schedule: Q04DX003 (ip), vehicle: acetone) is 124 % of control. Further, the T/C reads like this: (dose: 24.0 mg/kg/injection, schedule: Q08DX002 (ip), vehicle: acetone) 105 % of control; (dose: 27.0 mg/kg/injection, schedule: Q01DX Z (ip), vehicle: methylcellulose (MC)) 110 % of control and 116 % of control; (dose: 33.0 mg/kg/injection, schedule: Q01DX001 (ip), vehicle: saline) 107 % of control; (dose: 36.0 mg/kg/injection, schedule: Q01DX001 (ip), vehicle: acetone) 110 % of control; (dose: 36.0 mg/kg/injection, schedule: Q04DX003 (ip), vehicle: acetone) 124 % of control; (dose: 36.0 mg/kg/injection, schedule: Q08DX002 (ip), vehicle: acetone) 117 % of control. The T/C by setting is: (dose: 37.5 mg/kg/injection, schedule: Q01DX009 (ip), vehicle: saline) 150 % of control; (dose: 37.5 mg/kg/injection, schedule: Q04DX003 (ip), vehicle: saline sonified) 113 % of control; (dose: 40.0 mg/kg/injection, schedule: Q01DX Z (ip), vehicle: methylcellulose (MC)) 108 % of control and 116 % of control; (dose: 50.0 mg/kg/injection, schedule: Q01DX001 (ip), vehicle: saline) 117 % of control; (dose: 54.0 mg/kg/injection, schedule: Q01DX001 (ip), vehicle: acetone) 121 % of control; (dose: 54.0 mg/kg/injection, schedule: Q08DX002 (ip), vehicle: acetone) 113 % of control. Further, the T/C is 86 % of control (dose: 60.0 mg/kg/injection, schedule: Q01DX Z (ip), vehicle: methylcellulose (MC)); 168 % of control (dose: 66.0 mg/kg/injection, schedule: Q01DX009 (ip), vehicle: acetone); 117 % of control (dose: 66.0 mg/kg/injection, schedule: Q04DX003 (ip), vehicle: saline); 175 % of control (dose: 75.0 mg/kg/injection, schedule: Q01DX009 (ip), vehicle: saline); 119 % of control (dose: 75.0 mg/kg/injection, schedule: Q04DX003 (ip), vehicle: saline sonified); 118 % of control (dose: 81.0 mg/kg/injection, schedule: Q01DX001 (ip), vehicle: acetone). Besides, the T/C is, setting by setting: (dose: 81.0 mg/kg/injection, schedule: Q04DX003 (ip), vehicle: acetone) 154 % of control; (dose: 81.0 mg/kg/injection, schedule: Q08DX002 (ip), vehicle: acetone) 123 % of control; (dose: 100.0 mg/kg/injection, schedule: Q01DX001 (ip), vehicle: saline) 118 % of control; (dose: 100.0 mg/kg/injection, schedule: Q01DX009 (ip), vehicle: acetone) 224 % of control; (dose: 100.0 mg/kg/injection, schedule: Q04DX003 (ip), vehicle: acetone) 161 % of control; (dose: 150.0 mg/kg/injection, schedule: Q04DX003 (ip), vehicle: saline) 101 % of control. For the same compound, the T/C (dose: 200.0 mg/kg/injection, schedule: Q01DX001 (ip), vehicle: saline) is 121 % of control.

For `CCc1nc2ccccc2c(=O)n1-c1ccc(Cl)cc1`, the T/C was 92 % of control (dose: 50.0 mg/kg/injection, schedule: Q01DX009 (ip), vehicle: saline with Tween-80) and 95 % of control (dose: 100.0 mg/kg/injection, schedule: Q01DX009 (ip), vehicle: saline with Tween-80).

For `CCCCCCCCCC(=O)N1CCCCCC1`, the T/C is, setting by setting: under setting [1], 98 % of control; under setting [2], 95 % of control; under setting [3], 88 % of control.

Consider `CCOC(=O)c1ccc(NC(=O)Nc2ccc(F)cc2)cc1`, for which the T/C reads like this: (dose: 100.0 mg/kg/injection, schedule: Q01DX009 (ip), vehicle: Klucel (hydroxypropylcellulose) (HPC)) 90 % of control; (dose: 200.0 mg/kg/injection, schedule: Q01DX009 (ip), vehicle: Klucel (hydroxypropylcellulose) (HPC)) 90 % of control.

For `CCOC(=O)/C(C)=N/O`, the T/C under setting [4] was 96 % of control, the T/C under setting [5] is 116 % of control and the T/C under setting [6] was 104 % of control.

Turning to `C/C=C/CC1(C(C)C)C(=O)NC(=S)NC1=O`, the T/C (dose: 75.0 mg/kg/injection, schedule: Q01DX001 (ip), vehicle: saline) is 93 % of control.
